# Experimental data from ChEMBL document CHEMBL1201862, “PubChem BioAssay data set” (2004).
# Calls of active or inactive are those of the source.
# Assays:
# Type in all cases: functional
# [1] = target: Serine/threonine-protein kinase PLK1 (Homo sapiens, UniProt P53350);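 also: PLK1 measured as one member of a kinome-wide profiling panel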
# [2] = target: Receptor-type tyrosine-protein kinase FLT3 (Homo sapiens, UniProt P36888);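 also: FLT3 was tested as one member of a kinome-wide kinase panel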
# [3] = target: Protein kinase C gamma type (Homo sapiens, UniProt P05129)
# [4] = target: Tyrosine-protein kinase Blk (Homo sapiens, UniProt P51451);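 also: obtained as one member of a kinome-wide kinase assay panel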
# [5] = target: Megakaryocyte-associated tyrosine-protein kinase (Homo sapiens, UniProt P42679);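 also: affinity measured as one member of a kinase panel (Navigating the Kinome) against MATK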
# [6] = target: STE20-like serine/threonine-protein kinase (Homo sapiens, UniProt Q9H2G2)
# [7] = target: Death-associated protein kinase 3 (Homo sapiens, UniProt O43293);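 also: measured as one member of a kinome-wide profiling panel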
# [8] = target: Fibroblast growth factor receptor 3 (Homo sapiens, UniProt P22607)
# [9] = target: cAMP-dependent protein kinase catalytic subunit alpha (Homo sapiens, UniProt P17612)
# [10] = target: Insulin-like growth factor 1 receptor (Homo sapiens, UniProt P08069); assay: Navigating the Kinome. Panel member name: IGF1R
# Chain of Insulin-like growth factor 1 receptor (P08069 31-736 limits assumed): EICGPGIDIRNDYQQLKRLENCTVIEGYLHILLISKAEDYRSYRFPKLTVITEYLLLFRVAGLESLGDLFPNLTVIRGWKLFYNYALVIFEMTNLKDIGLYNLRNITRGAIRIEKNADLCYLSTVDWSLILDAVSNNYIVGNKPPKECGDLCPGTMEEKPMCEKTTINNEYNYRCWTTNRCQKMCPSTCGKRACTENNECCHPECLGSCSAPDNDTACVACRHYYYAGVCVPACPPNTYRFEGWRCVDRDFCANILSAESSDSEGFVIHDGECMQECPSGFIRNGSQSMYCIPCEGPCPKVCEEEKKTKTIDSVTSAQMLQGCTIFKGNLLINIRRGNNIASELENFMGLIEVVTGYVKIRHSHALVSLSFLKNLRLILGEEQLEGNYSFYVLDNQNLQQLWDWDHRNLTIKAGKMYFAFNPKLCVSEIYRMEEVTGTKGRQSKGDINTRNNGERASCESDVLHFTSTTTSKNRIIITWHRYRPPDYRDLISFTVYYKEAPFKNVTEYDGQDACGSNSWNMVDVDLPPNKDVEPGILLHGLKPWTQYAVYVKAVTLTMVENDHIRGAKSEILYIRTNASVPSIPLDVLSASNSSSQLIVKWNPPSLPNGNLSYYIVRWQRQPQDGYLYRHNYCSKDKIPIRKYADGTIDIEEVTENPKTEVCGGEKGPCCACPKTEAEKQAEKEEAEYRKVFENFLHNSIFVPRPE
# Chain of Insulin-like growth factor 1 receptor (P08069 741-1367 limits assumed): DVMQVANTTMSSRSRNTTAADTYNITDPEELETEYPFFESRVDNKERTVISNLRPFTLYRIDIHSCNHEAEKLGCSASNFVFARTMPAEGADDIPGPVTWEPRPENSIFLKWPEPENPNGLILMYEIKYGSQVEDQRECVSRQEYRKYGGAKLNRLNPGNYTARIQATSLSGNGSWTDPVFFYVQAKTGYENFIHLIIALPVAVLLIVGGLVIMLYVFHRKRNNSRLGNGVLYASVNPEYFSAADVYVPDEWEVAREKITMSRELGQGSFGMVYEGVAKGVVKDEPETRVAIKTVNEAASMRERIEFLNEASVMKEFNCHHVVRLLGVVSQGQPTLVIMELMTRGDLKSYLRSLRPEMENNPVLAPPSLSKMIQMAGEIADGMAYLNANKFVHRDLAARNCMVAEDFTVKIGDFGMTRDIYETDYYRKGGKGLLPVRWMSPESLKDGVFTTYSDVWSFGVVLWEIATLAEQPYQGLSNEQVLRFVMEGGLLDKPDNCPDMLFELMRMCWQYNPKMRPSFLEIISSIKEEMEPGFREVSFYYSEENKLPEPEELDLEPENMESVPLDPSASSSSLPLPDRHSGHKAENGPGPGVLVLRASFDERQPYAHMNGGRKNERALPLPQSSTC
# [11] = target: Serine/threonine-protein kinase Chk1 (Homo sapiens, UniProt O14757);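 also: measured as one member of a kinome-wide kinase profiling panel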
# [12] = target: Ribosomal protein S6 kinase beta-1 (Homo sapiens, UniProt P23443);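 also: measured as one member of a kinome-wide profiling panel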
# [13] = target: Serine/threonine-protein kinase DCLK1 (Homo sapiens, UniProt O15075);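 also: affinity for DCLK1 (listed as DCAMKL1) measured as one member of a kinome-wide kinase profiling panel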
# [14] = target: Tyrosine-protein kinase ITK/TSK (Homo sapiens, UniProt Q08881);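 also: affinity for ITK measured as one member of a broad kinase panel profiling binding across the kinome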
# [15] = target: Hepatocyte growth factor receptor (Homo sapiens, UniProt P08581);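 also: kinase panel profiling across the kinome, with MET as the panel member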
# [16] = target: Serine/threonine-protein kinase Chk2 (Homo sapiens, UniProt O96017);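 also: CHEK2 entry within a kinome-wide screening panel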
# Activin receptor type-1 = Activin receptor type-1 (Homo sapiens, UniProt Q04771); assay: Navigating the Kinome. Panel member name: ACVR1
# [17] = target: Tyrosine-protein kinase Srms (Homo sapiens, UniProt Q9H3Y6);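 also: SRMS measured as one member of a kinome-wide kinase profiling panel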
# [18] = target: Maternal embryonic leucine zipper kinase (Homo sapiens, UniProt Q14680)
# [19] = target: Homeodomain-interacting protein kinase 4 (Homo sapiens, UniProt Q8NE63)
# [20] = target: Protein kinase C theta type (Homo sapiens, UniProt Q04759); assay: Navigating the Kinome. Panel member name: PRKCQ
# Chain of Protein kinase C theta type (Q04759 whole entry): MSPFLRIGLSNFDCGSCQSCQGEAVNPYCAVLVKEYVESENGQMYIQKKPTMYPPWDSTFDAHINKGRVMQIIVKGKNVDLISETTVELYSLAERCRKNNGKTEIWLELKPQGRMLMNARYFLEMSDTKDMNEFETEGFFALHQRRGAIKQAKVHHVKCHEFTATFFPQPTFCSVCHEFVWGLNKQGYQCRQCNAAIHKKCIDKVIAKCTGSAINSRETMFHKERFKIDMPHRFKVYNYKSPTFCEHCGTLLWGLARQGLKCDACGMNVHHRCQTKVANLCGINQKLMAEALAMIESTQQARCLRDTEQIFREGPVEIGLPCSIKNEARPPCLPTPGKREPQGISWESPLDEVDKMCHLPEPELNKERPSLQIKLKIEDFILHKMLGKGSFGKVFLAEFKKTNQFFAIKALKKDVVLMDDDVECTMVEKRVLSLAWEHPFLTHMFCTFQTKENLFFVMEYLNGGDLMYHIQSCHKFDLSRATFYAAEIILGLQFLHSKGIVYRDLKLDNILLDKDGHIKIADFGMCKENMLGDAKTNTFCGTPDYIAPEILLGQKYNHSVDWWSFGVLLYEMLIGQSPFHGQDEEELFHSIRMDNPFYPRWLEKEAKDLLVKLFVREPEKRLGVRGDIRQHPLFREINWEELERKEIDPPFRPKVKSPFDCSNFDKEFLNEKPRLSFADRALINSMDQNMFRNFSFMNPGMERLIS
# [21] = target: Dual specificity tyrosine-phosphorylation-regulated kinase 4 (Homo sapiens, UniProt Q9NR20)
# [22] = target: 5'-AMP-activated protein kinase catalytic subunit alpha-1 (Homo sapiens, UniProt Q13131)
# Chain of 5'-AMP-activated protein kinase catalytic subunit alpha-1 (Q13131 whole entry): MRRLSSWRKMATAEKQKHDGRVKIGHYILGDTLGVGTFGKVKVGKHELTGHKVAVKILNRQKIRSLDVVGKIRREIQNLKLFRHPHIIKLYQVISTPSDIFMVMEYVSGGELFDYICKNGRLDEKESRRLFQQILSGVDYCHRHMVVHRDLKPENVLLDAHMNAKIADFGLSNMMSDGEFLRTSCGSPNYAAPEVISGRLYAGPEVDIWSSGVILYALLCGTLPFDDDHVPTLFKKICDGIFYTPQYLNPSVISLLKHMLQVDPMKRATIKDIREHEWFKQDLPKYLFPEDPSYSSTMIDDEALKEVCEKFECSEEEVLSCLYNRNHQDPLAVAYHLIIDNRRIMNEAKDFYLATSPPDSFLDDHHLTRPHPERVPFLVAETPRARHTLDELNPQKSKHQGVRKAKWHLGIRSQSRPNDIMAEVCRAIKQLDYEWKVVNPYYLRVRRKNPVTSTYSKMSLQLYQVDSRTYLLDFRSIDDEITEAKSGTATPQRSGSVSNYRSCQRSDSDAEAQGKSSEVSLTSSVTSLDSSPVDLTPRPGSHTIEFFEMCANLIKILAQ
# [23] = target: Tyrosine-protein kinase receptor TYRO3 (Homo sapiens, UniProt Q06418);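 also: TYRO3 value obtained as one member of a kinome-wide profiling panel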
# [24] = target: cGMP-dependent protein kinase 1 (Homo sapiens, UniProt Q13976);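 also: value from a kinome panel screen with PRKG1 as the panel member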
# [25] = target: Interleukin-1 receptor-associated kinase 4 (Homo sapiens, UniProt Q9NWZ3)
# [26] = target: Tyrosine-protein kinase Fyn (Homo sapiens, UniProt P06241)
# Chain of Tyrosine-protein kinase Fyn (P06241 whole entry): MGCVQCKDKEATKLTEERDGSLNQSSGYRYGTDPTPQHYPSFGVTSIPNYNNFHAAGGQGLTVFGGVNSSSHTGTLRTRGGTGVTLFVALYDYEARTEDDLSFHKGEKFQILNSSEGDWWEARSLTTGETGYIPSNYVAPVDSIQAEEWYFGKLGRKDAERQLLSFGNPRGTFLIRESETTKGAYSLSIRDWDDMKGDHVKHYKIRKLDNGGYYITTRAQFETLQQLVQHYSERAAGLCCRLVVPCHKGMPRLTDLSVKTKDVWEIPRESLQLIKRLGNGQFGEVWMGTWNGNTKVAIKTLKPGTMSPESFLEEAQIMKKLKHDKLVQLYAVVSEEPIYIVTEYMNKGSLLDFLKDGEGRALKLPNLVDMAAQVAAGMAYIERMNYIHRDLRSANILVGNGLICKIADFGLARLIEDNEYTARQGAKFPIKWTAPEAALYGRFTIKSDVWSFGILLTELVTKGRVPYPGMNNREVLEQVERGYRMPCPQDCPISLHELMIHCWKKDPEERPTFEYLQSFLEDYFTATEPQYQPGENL
# [27] = target: Serine/threonine-protein kinase PLK4 (Homo sapiens, UniProt O00444);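 also: PLK4 measured as one member of a kinome-wide kinase profiling panel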
# [28] = target: Calcium/calmodulin-dependent protein kinase kinase 2 (Homo sapiens, UniProt Q96RR4); assay: Navigating the Kinome. Panel member name: CAMKK2
# [29] = target: Mitogen-activated protein kinase 8 (Homo sapiens, UniProt P45983);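 also: value comes from one member of a kinome-wide kinase profiling panel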
# Chain of Mitogen-activated protein kinase 8 (P45983 whole entry): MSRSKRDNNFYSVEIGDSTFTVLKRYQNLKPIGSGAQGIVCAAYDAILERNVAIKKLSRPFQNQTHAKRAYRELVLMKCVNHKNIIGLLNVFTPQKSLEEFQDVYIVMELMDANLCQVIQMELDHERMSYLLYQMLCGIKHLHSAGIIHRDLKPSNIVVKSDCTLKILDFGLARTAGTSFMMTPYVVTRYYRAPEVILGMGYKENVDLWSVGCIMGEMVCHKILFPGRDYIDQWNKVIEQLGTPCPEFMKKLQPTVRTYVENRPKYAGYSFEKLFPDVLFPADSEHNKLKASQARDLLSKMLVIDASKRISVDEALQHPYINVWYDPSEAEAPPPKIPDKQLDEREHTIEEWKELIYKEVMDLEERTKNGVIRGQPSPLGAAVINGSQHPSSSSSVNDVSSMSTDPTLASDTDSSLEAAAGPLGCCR
# [30] = target: Dual specificity protein kinase CLK2 (Homo sapiens, UniProt P49760)
# Activated CDC42 kinase 1 = Activated CDC42 kinase 1 (Homo sapiens, UniProt Q07912); assay: Navigating the Kinome. Panel member name: ACK1
# Chain of Activated CDC42 kinase 1 (Q07912 whole entry, canonical isoform): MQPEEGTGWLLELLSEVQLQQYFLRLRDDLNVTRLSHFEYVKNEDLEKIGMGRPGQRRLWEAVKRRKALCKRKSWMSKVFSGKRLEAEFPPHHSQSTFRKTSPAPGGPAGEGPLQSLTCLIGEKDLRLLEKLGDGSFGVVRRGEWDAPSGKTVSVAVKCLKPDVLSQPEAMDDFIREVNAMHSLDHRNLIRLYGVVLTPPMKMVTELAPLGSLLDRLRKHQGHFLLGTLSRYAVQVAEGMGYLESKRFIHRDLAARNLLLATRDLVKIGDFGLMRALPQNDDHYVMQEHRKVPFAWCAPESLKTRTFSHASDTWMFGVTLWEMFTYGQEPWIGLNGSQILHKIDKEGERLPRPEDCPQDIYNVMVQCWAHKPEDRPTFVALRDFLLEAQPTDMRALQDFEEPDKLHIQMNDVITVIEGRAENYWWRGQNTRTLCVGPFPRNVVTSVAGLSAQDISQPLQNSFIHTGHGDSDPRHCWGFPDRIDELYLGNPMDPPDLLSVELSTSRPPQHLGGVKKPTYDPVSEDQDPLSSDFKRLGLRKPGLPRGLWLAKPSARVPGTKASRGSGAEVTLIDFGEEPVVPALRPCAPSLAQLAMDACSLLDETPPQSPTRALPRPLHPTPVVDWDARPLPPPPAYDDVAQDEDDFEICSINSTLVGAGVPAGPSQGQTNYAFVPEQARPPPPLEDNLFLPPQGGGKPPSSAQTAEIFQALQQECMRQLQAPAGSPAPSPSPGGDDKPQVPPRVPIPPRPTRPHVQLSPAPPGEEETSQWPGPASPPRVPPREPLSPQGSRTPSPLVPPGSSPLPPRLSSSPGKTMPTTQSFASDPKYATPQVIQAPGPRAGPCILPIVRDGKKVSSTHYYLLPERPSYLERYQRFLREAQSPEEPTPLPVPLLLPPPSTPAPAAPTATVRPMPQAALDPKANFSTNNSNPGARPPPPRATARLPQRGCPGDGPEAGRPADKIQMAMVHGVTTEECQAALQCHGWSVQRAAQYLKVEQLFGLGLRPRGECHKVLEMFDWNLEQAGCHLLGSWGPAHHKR
# [31] = target: Casein kinase I isoform delta (Homo sapiens, UniProt P48730);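 also: measured as one member (CSNK1D) of a kinome panel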
# Chain of Casein kinase I isoform delta (P48730 whole entry, canonical isoform): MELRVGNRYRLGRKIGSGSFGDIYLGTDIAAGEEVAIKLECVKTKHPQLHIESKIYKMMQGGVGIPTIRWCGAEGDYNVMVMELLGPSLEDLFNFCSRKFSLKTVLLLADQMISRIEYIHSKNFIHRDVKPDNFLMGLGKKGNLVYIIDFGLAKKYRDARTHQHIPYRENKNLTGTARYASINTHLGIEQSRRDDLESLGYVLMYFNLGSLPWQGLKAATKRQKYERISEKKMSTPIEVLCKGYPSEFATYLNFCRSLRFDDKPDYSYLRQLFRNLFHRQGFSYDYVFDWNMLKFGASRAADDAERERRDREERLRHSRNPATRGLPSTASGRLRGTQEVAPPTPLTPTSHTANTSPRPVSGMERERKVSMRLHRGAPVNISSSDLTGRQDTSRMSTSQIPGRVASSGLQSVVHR
# [32] = insulin promoter down-regulators in MIN6 cells, imaging, high-content screening, mouse beta cells (AID 1628)
# Genome polyprotein = Genome polyprotein (dengue virus type 2, UniProt P29990); assay: Dengue-2 NS5 methyltransferase inhibitors, primary screen, biochemical, confirmation dose response (AID 588689)
# [33] = THP-1 cell cytotoxicity, dose response, cytotoxicity control for Vif-APOBEC3G degradation inhibitor project, THP-1 cells (AID 1117359); settings: Human immunodeficiency virus 1, THP-1
# [34] = target: T1, Neuropeptide Y receptor type 2 (Homo sapiens, UniProt P49146); assay: Fluorescence-based counterscreen for agonists of NPY-Y1: cell-based high-throughput dose response assay for agonists of NPY-Y2.
# T1 sequence (P49146 whole entry): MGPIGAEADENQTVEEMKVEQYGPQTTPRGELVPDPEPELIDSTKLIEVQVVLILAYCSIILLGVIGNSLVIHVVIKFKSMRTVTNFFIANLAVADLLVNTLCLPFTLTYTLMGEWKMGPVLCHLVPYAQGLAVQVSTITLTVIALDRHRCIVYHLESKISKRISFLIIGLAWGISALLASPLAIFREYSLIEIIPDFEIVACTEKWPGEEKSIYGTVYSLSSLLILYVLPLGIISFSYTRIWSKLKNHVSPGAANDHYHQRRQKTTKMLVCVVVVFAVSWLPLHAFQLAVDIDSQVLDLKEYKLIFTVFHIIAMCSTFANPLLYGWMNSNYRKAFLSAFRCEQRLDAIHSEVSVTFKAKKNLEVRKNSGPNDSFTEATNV
# [35] = target: T2, Sentrin-specific protease 8 (Homo sapiens, UniProt Q96LD8);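 also: kinetic enzyme assay of SENP8 cleaving a Nedd8 protein substrate, dose-response confirmation of screening hits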
# T2 sequence (Q96LD8 whole entry): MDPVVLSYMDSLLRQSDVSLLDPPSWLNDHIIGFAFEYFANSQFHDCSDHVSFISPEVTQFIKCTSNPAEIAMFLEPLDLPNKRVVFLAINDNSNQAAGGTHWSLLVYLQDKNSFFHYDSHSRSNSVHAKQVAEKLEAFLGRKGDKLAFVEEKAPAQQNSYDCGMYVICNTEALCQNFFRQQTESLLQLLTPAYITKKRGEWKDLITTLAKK
smiles,measurement,setting,value
OC1CCC(Nc2cc(Cl)nc(-c3c[nH]c4ncccc34)n2)CC1 (stereo not drawn),Ki,[1],> 5010 nM (inactive)
same,Ki,[2],1000 nM (active)
same,Ki,[3],251 nM (active)
same,Ki,[4],> 794 nM (inactive)
same,Ki,[5],1580 nM (active)
same,Ki,[6],126 nM (active)
same,Ki,[7],316 nM (active)
same,Ki,[8],> 2000 nM (inactive)
same,Ki,[9],126 nM (active)
same,Ki,[10],> 2000 nM (inactive)
same,Ki,[11],1000 nM (active)
same,Ki,[12],251 nM (active)
same,Ki,[13],> 10000 nM (inactive)
same,Ki,[14],> 1580 nM (inactive)
same,Ki,[15],> 2000 nM (inactive)
same,Ki,[16],398 nM (active)
same,Ki,Activin receptor type-1,> 3980 nM (inactive)
same,Ki,[17],> 1580 nM (inactive)
same,Ki,[18],200 nM (active)
same,Ki,[19],1000 nM (active)
same,Ki,[20],100 nM (active)
same,Ki,[21],1580 nM (active)
same,Ki,[22],200 nM (active)
same,Ki,[23],> 2510 nM (inactive)
same,Ki,[24],> 1260 nM (inactive)
same,Ki,[25],316 nM (active)
same,Ki,[26],> 794 nM (inactive)
same,Ki,[27],> 2510 nM (inactive)
same,Ki,[28],> 2510 nM (inactive)
same,Ki,[29],2510 nM (active)
same,Ki,[30],794 nM (active)
same,Ki,Activated CDC42 kinase 1,> 3980 nM (inactive)
same,Ki,[31],200 nM (active)
COCC/N=c1\scc(-c2cccs2)n1/N=C/c1ccc(O)c(O)c1O,IC50,[32],> 16000 nM (inactive)
same,IC50,Genome polyprotein,> 100000 nM (active)
same,CC50,[33],16500 nM (active)
same,EC50,[34],19300 nM (not active)
O=C(COC(=O)c1ccc([N+](=O)[O-])s1)NCCc1ccccc1,IC50,[35],3230 nM (active)
